Laboratory results reported in PMC12261219, “Comparative Evaluation of Thiol- and Amine-Conjugating Moieties for Endogenous Albumin Binding after Intravenous Administration” (ACS Pharmacology & Translational Science, 2025).
Where “and” joins values, the source holds several entries; their conditions need not be identical. Equal entries are not always repeated.

Key:
albumin = biological target: T1, albumin (Homo sapiens, UniProt P02768); assay: SEC-ICP-MS with single serum protein solution: albumin; assay type: binding; conditions: 200 μM albumin, 100 μM compound, 100 mM PB pH 7.4, 37 °C, 2 h
T1 construct: purchased Sigma-Aldrich A8763
Protocol: (§1) All investigated proteins were purchased from commercial suppliers: Albumin (Sigma-Aldrich, A8763), IgG (Athens Research, 16–16–090707), α1-antitrypsin (Sigma-Aldrich, A6150) and apotransferrin (Sigma-Aldrich, T1147). […] The compound stocks were diluted into the protein solution to reach a final concentration of 100 μM (27 μL protein and 3 μL compound). The samples were incubated at 37 °C for 2 h and analyzed as described for the SEC-ICP-MS studies (Tables S6 and S7).

α1-antitrypsin = biological target: T2, α1-antitrypsin (Homo sapiens, UniProt P01009); assay: SEC-ICP-MS with single serum protein solution: α1-antitrypsin; assay type: binding; conditions: 200 μM α1-antitrypsin, 100 μM compound, 100 mM PB pH 7.4, 37 °C, 2 h
T2 construct: purchased Sigma-Aldrich A6150
Protocol: as §1

IgG = assay: SEC-ICP-MS with single serum protein solution: IgG; assay type: binding, human; conditions: 200 μM IgG, 100 μM compound, 100 mM PB pH 7.4, 37 °C, 2 h
Protocol: as §1

albumin (mouse serum) = biological target: T3, albumin (mouse serum) (Mus musculus, UniProt P07724); assay: SEC-ICP-MS albumin binding in mouse serum; assay type: in vitro ADME; conditions: 100 µM, 37 °C
T3 construct: The serum was separated by centrifugation (two times 10 min at 900 g) after 10–20 min clotting at room temperature; from tissue; host or cells: serum of Balb/c mice
Protocol: Blood of Bab/c mice was collected under anesthesia via heart puncture. […] Human serum was purchased from Sigma-Aldrich. In order to guarantee a stable pH, all sera were buffered with 150 mM phosphate to pH 7.4 by dissolving the necessary amounts of Na2HPO4 and NaH2PO4 directly in the serum. […] The samples were then incubated in the autosampler at 37 °C and analyzed every hour for 4 or 5 h and after 24 h. Between each sample a pure water blank was measured. For measurements with 10 min intervals the same procedure was followed, but the blank measurements were omitted. For SEC-ICP-MS measurements an Agilent 1260 Infinity system coupled to an Agilent 7800 ICP-HRMS equipped with a dynamic reaction cell was used. Oxygen (purity 5.5, Messer Austria GmbH, Gumpoldskirchen, Austria) was used as reaction gas.

[1] = Reduction with ascorbic acid, release of oxaliplatin (HPLC); assay type: physicochemical; conditions: 0.5 mM, 150 mM PB, pH 7.4, 20 °C, 30 eq. ascorbic acid
Protocol: The samples were incubated at 20 °C and measured over 25 h. […] RP-HPLC runs were performed using a Waters Acquity UPLC HSS T3 column (100 Å, 1.8 μm, 3.0 mm × 50 mm) on a Dionex Thermo Scientific UltiMate 3000 HPLC system, equipped with a HPG-3400RS binary pump and a DAD-3000RS UV–vis detector. Chromatograms were evaluated at a wavelength of 230 nm. Milli-Q water (mobile phase A) and acetonitrile (mobile phase B), both containing 0.1% TFA, were used as eluents. The flow rate was consistent at 0.6 mL/min for all measurements using the following gradient: 0–0.5 min A 99:1 B, 0.5–5.5 min linear gradient to A 1:99 B, 5.5–6.5 min A 1:99 B, 6.5–9.2 min A 99:1 B.

[2] = Serum pharmacokinetics (platinum, ICP-MS) in CT26-bearing Balb/c mice
Protocol: CT26 cells (5 × 10^5 in 50 μL serum-free medium) were injected subcutaneously (s.c.) into the right flank of male Balb/c mice. […] The blood, tumor and organ collection followed the study design in Figure A. Briefly, to assess serum platinum levels, blood was collected after 5 min, 30 min, 5 h and 24 h (2 mice per time point) via the facial vein. The serum was separated by centrifugation (two times 10 min at 900 g) after 10 min clotting at room temperature. […] All collected samples were stored at −20 °C and further processed for platinum measurements via ICP-MS as follows: HNO3 (67–69%, suprapur for trace metal analysis, NORMATOM; Distributor: VWR international, Austria) and conc. H2O2 suprapur (Merck, 30%) were used without further purification. Digestion of tissue (approximately 15–30 mg gravimetrically weighted) was performed with 2 mL of approximately 20% HNO3 and 100 μL H2O2 using an open vessel graphite digestion system (coated graphite heating plate, coated sample holder-top for 25 mL vials, PFA vials and PFA lids; Labter, ODLAB; Distributor: AHF Analysentechnik AG; Germany). Digested samples were diluted in Milli-Q water (18.2 MΩ cm, Milli-Q Advantage, Darmstadt, Germany). For the ICP-MS analysis, platinum and rhenium standards were derived from CPI International (Amsterdam, The Netherlands). The total platinum content was determined with a quadrupole-based Agilent 7800 ICP-MS instrument (Agilent Technologies, Tokyo, Japan) equipped with the Agilent SPS 4 autosampler (Agilent Technologies, Tokyo, Japan) and a MicroMist nebulizer at a sample uptake rate of approximately 0.2 mL/min. An RF power of 1550 W was used as well as nickel cones. Argon was used as plasma gas (15 L/min) and as carrier gas (∼1.1 L/min). The dwell time was set to 0.1 s and the measurements were performed in 6 replicates with 100 sweeps. Rhenium served as internal standard for platinum. The Agilent MassHunter software package (Workstation Software, version C.01.04) was used for data processing.
As platinum was measured in serum, equimolar administered doses were adjusted to correspond to platinum (0.0227 mmol, 4.42 mg platinum). The area under the “concentration”–time curve (AUC) was determined from time 0 to infinity (AUCPt_0‑∞) and from time 0 to 24 h (AUCPt_0–24, based on the last observed sample at 24 h; linear-log trapezoidal calculation method). The terminal slope (λ z ) was determined based on the last two (out of four) measurements (times 5 h and 24 h).

[3] = Hydrolytic stability in buffer (HPLC); assay type: physicochemical; conditions: 0.5 mM
Protocol: The samples were incubated at 20 °C and measured over 25 h. Reversed phase high-performance liquid chromatography (RP-HPLC) runs were performed using a Waters Acquity UPLC BEH C18 column (130 Å, 1.7 μm, 3 mm × 50 mm) on a Dionex Thermo Scientific UltiMate 3000 HPLC system, equipped with a HPG-3400RS binary pump and a DAD-3000 UV–vis detector. Chromatograms were evaluated at a wavelength of 220 nm. Milli-Q water (mobile phase A) and acetonitrile (mobile phase B), both containing 0.1% TFA, were used as eluents. The flow rate was consistent at 0.6 mL/min for all measurements using the following gradient: 0–0.5 min A 95:5 B, 0.5–5.5 min linear gradient to A 5:95 B, 5.5–6.5 min A 5:95 B, 6.5–9.2 min A 95:5 B. The same conditions were applied for stability measurements in 100 mM PB at pH 5.5 and 6.5 as well as in 20 mM HEPES and MOPS at pH 7.4. RP-HPLC-MS analyses of the same samples after the stability measurements were conducted on a Waters Acquity UPLC BEH C18 column (130 Å, 1.7 μm, 3 mm × 50 mm) on an Agilent 1260 Infinity II system equipped with a Flexible pump, a 1260 VWD UV–vis detector and the LC–MSD system. Chromatograms were evaluated at a wavelength of 220 nm. Milli-Q water (mobile phase A) and acetonitrile (mobile phase B), both containing 0.1% formic acid, were used as eluents. The flow rate was consistent at 0.6 mL/min for all measurements using the following gradient: 0–0.5 min A 95:5 B, 0.5–6.0 min linear gradient to A 5:95 B, 6.0–7.0 min A 5:95 B, 7.0–7.1 min linear gradient to A 95:5 B, 7.1–8.0 min A 95:5 B.

apotransferrin = biological target: T4, apotransferrin (Homo sapiens, UniProt P02787); assay: SEC-ICP-MS with single serum protein solution: apotransferrin; assay type: binding; conditions: 200 μM apotransferrin, 100 μM compound, 100 mM PB pH 7.4, 37 °C, 2 h
T4 construct: purchased Sigma-Aldrich T1147
Protocol: as §1

[4] = pH 7.4, 10 min intervals, 0 min
[5] = pH 7.4, 10 min intervals, 10 min
[6] = pH 7.4, 10 min intervals, 20 min
[7] = pH 7.4, 10 min intervals, 30 min
[8] = pH 7.4, 10 min intervals, 40 min
[9] = pH 7.4, 10 min intervals, 50 min
[10] = pH 7.4, 10 min intervals, 60 min

T3 sequence (P07724 25-608): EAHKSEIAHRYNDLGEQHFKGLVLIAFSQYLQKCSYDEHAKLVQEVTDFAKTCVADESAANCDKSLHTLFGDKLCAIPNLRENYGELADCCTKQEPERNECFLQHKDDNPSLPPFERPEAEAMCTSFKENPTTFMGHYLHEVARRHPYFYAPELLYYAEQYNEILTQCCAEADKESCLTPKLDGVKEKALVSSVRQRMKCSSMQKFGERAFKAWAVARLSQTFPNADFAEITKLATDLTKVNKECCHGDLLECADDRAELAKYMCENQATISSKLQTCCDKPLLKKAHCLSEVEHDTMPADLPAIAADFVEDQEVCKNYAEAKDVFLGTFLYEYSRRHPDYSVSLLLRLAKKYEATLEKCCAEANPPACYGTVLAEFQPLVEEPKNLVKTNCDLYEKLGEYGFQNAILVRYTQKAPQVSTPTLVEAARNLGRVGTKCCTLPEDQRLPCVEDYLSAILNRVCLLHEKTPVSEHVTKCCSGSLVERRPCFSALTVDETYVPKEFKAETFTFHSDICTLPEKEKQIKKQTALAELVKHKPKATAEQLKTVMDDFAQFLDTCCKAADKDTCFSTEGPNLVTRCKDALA
T2 sequence (P01009 25-418): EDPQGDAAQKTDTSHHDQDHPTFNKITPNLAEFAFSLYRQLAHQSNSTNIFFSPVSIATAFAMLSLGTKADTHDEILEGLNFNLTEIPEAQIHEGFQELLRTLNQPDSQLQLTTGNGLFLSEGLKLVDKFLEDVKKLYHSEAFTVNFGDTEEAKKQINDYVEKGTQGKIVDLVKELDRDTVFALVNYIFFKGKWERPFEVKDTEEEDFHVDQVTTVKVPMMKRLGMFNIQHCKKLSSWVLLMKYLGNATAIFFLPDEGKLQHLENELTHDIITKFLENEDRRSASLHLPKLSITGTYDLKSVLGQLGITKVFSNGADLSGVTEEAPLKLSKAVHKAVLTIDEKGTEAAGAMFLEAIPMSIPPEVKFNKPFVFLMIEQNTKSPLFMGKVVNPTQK
T4 sequence (P02787 20-698): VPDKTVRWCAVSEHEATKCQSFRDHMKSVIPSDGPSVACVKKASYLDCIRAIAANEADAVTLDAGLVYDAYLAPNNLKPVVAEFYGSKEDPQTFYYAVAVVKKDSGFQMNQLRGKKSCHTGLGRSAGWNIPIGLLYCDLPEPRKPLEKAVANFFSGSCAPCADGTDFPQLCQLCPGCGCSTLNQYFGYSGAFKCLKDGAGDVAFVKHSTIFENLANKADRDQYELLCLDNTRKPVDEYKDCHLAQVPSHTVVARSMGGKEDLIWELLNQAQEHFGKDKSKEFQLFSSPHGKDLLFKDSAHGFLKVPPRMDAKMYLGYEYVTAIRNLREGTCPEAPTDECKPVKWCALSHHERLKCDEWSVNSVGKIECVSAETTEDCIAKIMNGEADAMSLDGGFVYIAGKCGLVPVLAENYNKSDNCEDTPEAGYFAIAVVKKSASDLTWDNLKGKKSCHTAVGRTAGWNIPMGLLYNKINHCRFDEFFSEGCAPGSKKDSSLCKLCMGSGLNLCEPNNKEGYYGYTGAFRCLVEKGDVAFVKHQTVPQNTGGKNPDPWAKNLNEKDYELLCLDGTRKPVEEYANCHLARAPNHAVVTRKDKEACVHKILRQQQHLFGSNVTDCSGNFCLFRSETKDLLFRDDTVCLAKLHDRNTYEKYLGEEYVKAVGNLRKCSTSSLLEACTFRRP
T1 sequence (P02768 25-609): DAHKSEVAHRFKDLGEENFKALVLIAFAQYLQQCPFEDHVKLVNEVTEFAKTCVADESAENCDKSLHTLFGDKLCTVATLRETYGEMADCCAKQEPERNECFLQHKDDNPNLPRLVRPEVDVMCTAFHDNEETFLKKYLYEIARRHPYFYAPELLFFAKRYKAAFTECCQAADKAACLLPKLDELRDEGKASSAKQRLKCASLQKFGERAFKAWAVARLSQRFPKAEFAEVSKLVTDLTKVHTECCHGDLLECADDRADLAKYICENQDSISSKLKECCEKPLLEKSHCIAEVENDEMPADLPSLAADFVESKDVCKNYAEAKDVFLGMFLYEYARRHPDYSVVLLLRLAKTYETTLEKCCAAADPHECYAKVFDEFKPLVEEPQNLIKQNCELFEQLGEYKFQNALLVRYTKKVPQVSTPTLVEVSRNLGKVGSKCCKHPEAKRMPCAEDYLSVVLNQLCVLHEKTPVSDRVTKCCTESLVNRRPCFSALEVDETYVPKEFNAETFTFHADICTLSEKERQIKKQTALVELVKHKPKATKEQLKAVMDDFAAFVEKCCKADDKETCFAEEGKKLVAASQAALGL

## CC(=O)[O][Pt-2]12([O]C(=O)NCCOCCOCCOCCOc3ccc(-c4nnc(S(C)(=O)=O)o4)cc3)([NH2+][C@@H]3CCCC[C@H]3[NH2+]1)[O]C(=O)C(=O)[O]2 [PODS-Ox-OAc, (OC-6–34)-Acetato[(1R,2R)-1,2-cyclohexane-1,2-diamino][(2-(2-(2-(2-(4-(5-(methylsulfonyl)-1,3,4-oxadiazol-2-yl)-phenoxy)-ethoxy)-ethoxy)-ethoxy)-ethyl)-carbamato]-oxalato platinum(IV)]
albumin
  Platinum in the HMWF (protein-bound): 69%
α1-antitrypsin
  Platinum in the HMWF (protein-bound): ~30%
IgG
  Platinum in the HMWF (protein-bound): less than 20%
Albumin (mouse serum); [4]
  Pt195 in HMWF (albumin-bound): 34%
  Pt195 in LMWF: 66%
Albumin (mouse serum); [5]
  Pt195 in HMWF (albumin-bound): 59% and ~60%
  Pt195 in LMWF: 41%
Albumin (mouse serum); [6]
  Pt195 in HMWF (albumin-bound): 71%
  Pt195 in LMWF: 29%
Albumin (mouse serum); [7]
  Pt195 in HMWF (albumin-bound): 78%
  Pt195 in LMWF: 22%
Albumin (mouse serum); [8]
  Pt195 in HMWF (albumin-bound): 83%
  Pt195 in LMWF: 17%
Albumin (mouse serum); [9]
  Pt195 in HMWF (albumin-bound): 85%
  Pt195 in LMWF: 15%
Albumin (mouse serum); [10]
  Pt195 in HMWF (albumin-bound): 87%
  Pt195 in LMWF: 13%
Albumin (mouse serum); pH 7.4, 1 h intervals, 0 h
  Pt195 in HMWF (albumin-bound): 30%
  Pt195 in LMWF: 70%
Albumin (mouse serum); pH 7.4, 1 h intervals, 1 h
  Pt195 in HMWF (albumin-bound): 82% and ~80%
  Pt195 in LMWF: 18%
Albumin (mouse serum); pH 7.4, 1 h intervals, 2 h
  Pt195 in HMWF (albumin-bound): 80%
  Pt195 in LMWF: 20%
Albumin (mouse serum); pH 7.4, 1 h intervals, 3 h
  Pt195 in HMWF (albumin-bound): 80%
  Pt195 in LMWF: 20%
Albumin (mouse serum); pH 7.4, 1 h intervals, 4 h
  Pt195 in HMWF (albumin-bound): 79%
  Pt195 in LMWF: 21%
Albumin (mouse serum); pH 7.4, 1 h intervals, 24 h
  Pt195 in HMWF (albumin-bound): 80%
  Pt195 in LMWF: 20%
[1]
  Oxaliplatin detected (released) after 25 h: 9%
[2]; at 5 and 30 min, i.v.
  Serum platinum level higher than after Mal-Ox-OAc treatment: about 50%
[2]; serum platinum, measured at tmax=0.08 h, single i.v. dose 4.42 mg/kg Pt
  Cmax: 52.5 mg/kg
[2]; serum platinum, tlast=24 h
  Percentage of AUCPt_0-∞ extrapolated from tlast to infinity: 25.5%
[2]; terminal half-life, serum platinum, i.v.
  Half-life: 13.6 h
[2]; total body clearance, serum platinum, single i.v. dose 4.42 mg/kg Pt
  CL: 0.00693 kg/h/kg
[2]; volume of distribution based on the terminal phase, serum platinum, i.v.
  Vz: 0.136 kg/kg
[3]; 20 mM HEPES, pH 7.4, 20 °C
  Intact compound after 25 h: 54%
[3]; 20 mM MOPS, pH 7.4, 20 °C
  Intact compound after 25 h: 76%
[3]; 100 mM PB, pH 5.5, 20 °C
  Intact compound after 25 h: 99%
[3]; 100 mM PB, pH 6.5, 20 °C
  Intact compound after 25 h: 94%
[3]; 100 mM PB, pH 7.4, 20 °C
  Intact compound after 25 h: 70%
apotransferrin
  Platinum in the HMWF (protein-bound): less than 10%
